What was measured:
[1] = target: MRP (Homo sapiens, UniProt P33527); test: ATP-dependent transport into membrane vesicles of MRP-overexpressing HL60/ADR cells; format: biochemical; parameters: HL60/ADR cells (human leukemia cells grown in adriamycin and overexpressing MRP); endogenous in cells; host or cells: HL60/ADR (Adriamycin-selected human HL60 leukemia cells), plasma membrane vesicles
Description: HL60/ADR cells (human leukemia cells grown in adriamycin and overexpressing MRP), revertant HL60 cells, and parental HL60 cells, respectively, were harvested by centrifugation after cultivation in cell culture and plasma membrane vesicles were prepared according to standard methods. Briefly, the cells were lysed by incubation in hypotonic buffer (0.5 mM sodium phosphate (pH 7.0), 0.1 mM EDTA supplemented with protease inhibitors) for 1.5 hours, followed by homogenization in a homogenizer. After centrifugation of the homogenate at 12,000×g(4° C., 10 minutes), the supernatant was centrifuged at 100,000×g at 4° C. for 45 minutes. […] After centrifugation at 280,000×g at 4° C. for 2 hours, the interphase was collected, washed by centrifugation in incubation buffer (100,000×g) and passed 20 times through a 27-gauge needle.
Membrane vesicles (50 μg of protein) were incubated in the presence of 4 mM ATP, 10 mM MgCl2, 10 mM of creatine phosphate, and the labeled substrate in an incubation buffer containing 250 mM sucrose and 10 mM Tris-HCl, pH 7.4. The final volume was 110 μl. Aliquots of 20 μl were taken at predetermined times and diluted in 1 ml of ice-cold incubation buffer. The dilute samples were filtered immediately through a nitrocellulose membrane (0.2 μm pore size), presoaked in incubation buffer using a rapid filtration device and rinsed twice with 5 ml incubation buffer. The filters were immersed in liquid and measured in a liquid scintillation counter. ATP was replaced by an equal concentration of 5′-AMP in a control experiment. All rates of the ATP-dependent transport were obtained by subtracting the values obtained in the presence of 5′-AMP from those measured in the presence of ATP.

[2] = system: HL60/ADR cells; test: Assay for reversal of Adriamycin resistance (cell growth, MTS); format: cell-based, human; settings: test compound in addition to Adriamycin, samples diluted to 20 μM, 25 μl per 100 μl well, 72 hours
Description: HL60/ADR is a continuous cell line, which was selected for Adriamycin™ resistance by culturing HL60, a human acute myeloblastic leukemia cell line, in increasing concentrations of Adriamycin™ until a highly resistant variant was attained. (McGrath, T., et al., Biochem. […] Marquardt, D. and Center, M. S., Cancer Res., 52: 3157, (1992); and Marquardt, D., et al., Cancer Res., 50: 1426, (1990)). […] Cells were harvested; washed twice with assay medium (same as culture media); counted; and diluted to 2×10^5 cells/ml in assay medium. Fifty μl of cells were aliquoted into wells of a 96 well tissue culture plate. One column of each 96 well plate served as a negative control and received assay medium containing no cells. Test compounds and references compounds were dissolved in dimethyl sulfoxide (DMSO) at a concentration of 5 mM. […] Assay standards were run in quadruplicate. 25 μl of 0.4% DMSO was added to four wells as a solvent control. […] The plates were incubated at 37° Centigrade for 72 hours in a humidified incubator with a 5% CO2 atmosphere. A CellTiter96 Aqueous Assay Kit (Promega) was used to measure cell viability and vitality via […] of a tetrazolium salt. The assay was performed in accordance with the vendors instructions, which required 2 ml of MTS reagent being mixed with 0.1 ml of PMS reagent and 20 μl of this solution was added to each well. The plates were incubated for 3 hours at 37° C. Absorbance was determined at 490 nm using a microtitre plate reader. The ability of a test compound to reverse the resistance of HL60/ADR cells to Adriamycin was determined by comparison of the absorbance of the wells containing a test compound in addition to Adriamycin with the absorbance of wells containing Adriamycin without a test compound. Controls were used to eliminate background and to ensure the results were not artifactual. The results of the assay are expressed as percent inhibition of cell growth.

Sequence of MRP (P33527 whole entry): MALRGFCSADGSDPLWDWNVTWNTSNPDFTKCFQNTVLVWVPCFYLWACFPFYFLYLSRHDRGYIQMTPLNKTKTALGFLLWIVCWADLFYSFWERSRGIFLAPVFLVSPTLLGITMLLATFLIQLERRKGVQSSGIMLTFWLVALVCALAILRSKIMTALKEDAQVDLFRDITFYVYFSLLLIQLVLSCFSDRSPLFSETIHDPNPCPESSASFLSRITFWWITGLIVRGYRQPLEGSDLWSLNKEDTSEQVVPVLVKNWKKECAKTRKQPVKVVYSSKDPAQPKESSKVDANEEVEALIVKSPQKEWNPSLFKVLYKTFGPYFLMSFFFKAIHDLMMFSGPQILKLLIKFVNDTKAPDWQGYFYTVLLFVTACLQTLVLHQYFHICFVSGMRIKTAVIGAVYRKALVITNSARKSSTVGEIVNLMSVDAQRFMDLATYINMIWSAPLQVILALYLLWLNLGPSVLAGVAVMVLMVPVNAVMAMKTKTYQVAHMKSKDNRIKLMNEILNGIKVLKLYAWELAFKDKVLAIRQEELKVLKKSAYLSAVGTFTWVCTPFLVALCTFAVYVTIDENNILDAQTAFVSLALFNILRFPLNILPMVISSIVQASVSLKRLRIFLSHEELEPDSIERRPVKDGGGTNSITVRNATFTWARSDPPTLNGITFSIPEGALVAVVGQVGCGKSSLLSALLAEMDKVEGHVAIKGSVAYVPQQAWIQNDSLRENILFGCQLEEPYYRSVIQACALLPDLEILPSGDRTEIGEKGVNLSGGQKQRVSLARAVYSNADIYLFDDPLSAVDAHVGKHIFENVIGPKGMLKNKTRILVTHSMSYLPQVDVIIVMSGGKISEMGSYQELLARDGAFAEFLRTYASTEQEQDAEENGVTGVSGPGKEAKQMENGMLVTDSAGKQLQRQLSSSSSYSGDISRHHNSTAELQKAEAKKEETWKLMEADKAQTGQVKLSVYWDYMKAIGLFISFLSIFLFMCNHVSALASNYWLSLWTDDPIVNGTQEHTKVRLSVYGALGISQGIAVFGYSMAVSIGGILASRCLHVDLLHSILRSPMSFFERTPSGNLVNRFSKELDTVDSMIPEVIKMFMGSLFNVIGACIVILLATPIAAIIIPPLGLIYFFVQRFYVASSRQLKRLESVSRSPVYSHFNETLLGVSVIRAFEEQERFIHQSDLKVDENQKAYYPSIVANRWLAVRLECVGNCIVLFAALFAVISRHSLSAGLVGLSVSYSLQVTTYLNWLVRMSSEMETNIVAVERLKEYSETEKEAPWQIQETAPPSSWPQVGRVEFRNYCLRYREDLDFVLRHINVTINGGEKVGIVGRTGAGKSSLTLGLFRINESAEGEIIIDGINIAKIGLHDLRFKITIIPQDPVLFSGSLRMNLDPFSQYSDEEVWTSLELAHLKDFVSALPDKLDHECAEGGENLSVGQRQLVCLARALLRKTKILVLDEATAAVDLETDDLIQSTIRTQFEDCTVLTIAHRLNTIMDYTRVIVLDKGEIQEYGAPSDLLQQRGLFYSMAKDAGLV

Row | SMILES | melting point | % Inhibition (percent inhibition of cell growth) [2] [%] | other results
1 | CCCc1c(OCCCCOc2cc(O)c(-c3ccc(F)cc3)cc2CC)cccc1Oc1ccccc1C(=O)O (hydrate or solvate) [Example 9, 2-[2-Propyl-3-[4-[2-ethyl-5-hydroxy-4-(4-fluorophenyl)-phenoxy]butoxy]phenoxy]benzoic acid sesquihydrate] | 65 to 68 °C |  | 
2 | CCCCc1c(OCCCOc2cc(O)c(-c3ccc(F)cc3)cc2CC)cccc1Oc1ccccc1C(=O)O (hydrate or solvate) [Example 11, 2-[2-Butyl-3-[3-[2-ethyl-5-hydroxy-4-(4-fluorophenyl)phenoxy]propoxy]phenoxy]benzoic acid hydrate] | 62 to 64 °C |  | 
3 | CCCc1c(OCCCOc2cc(O)c(-c3ccc(F)cc3)cc2CC)cccc1S(=O)(=O)c1ccccc1C(=O)O (hydrate or solvate) [Example 17, 2-[2-Propyl-3-[3-[2-ethyl-4-(4-fluorophenyl)-5-hydroxyphenoxy]propoxy]phenylsulfonyl]benzoic acid hydrate] | 80 to 90 °C |  | 
4 | CCCCC/C=C\C\C=C/C=C/C=C/[C@@H](Sc1ccc(C(=O)O)cc1)[C@@H](O)CCCC(=O)O [BAY u9773] |  |  | type of inhibition of ATP-dependent LTC4 transport ([1]; double-reciprocal (Lineweaver and Burk) plot): competitive inhibition; Ki ([1]; inhibition of ATP-dependent transport of LTC4, vesicles of MRP-overexpressing cells, 37° C., 2 minutes, read-out: inhibition constant (Ki)): 0.7 µM
5 | CCCc1c(OCCCOc2cc(O)c(-c3ccc(F)cc3)cc2CC)ccc2c1OC(C(=O)O)CC2 (centres unmarked) [Example 1, 8-Propyl-7-[3-[4-(4-fluorophenyl)-2-ethyl-5-hydroxyphenoxy]propoxy]-3,4-dihydro-2H-1-benzopyran-2-carboxylic acid] |  | 54 | 
6 | CCCc1c(OCCCOc2cc(O)c(-c3ccccc3)cc2CC)cccc1Oc1ccccc1C(=O)[O-].[Na+] [Example 2, 2-[2-Propyl-3-[3-(2-ethyl-5-hydroxy-4-phenylphenoxy)-propoxy]phenoxy]benzoic acid sodium salt hemihydrate] |  | 63 | 
7 | CCCc1c(OCCCOc2cc([O-])c(-c3ccccc3)cc2CC)cccc1Oc1ccccc1-c1nnn[n-]1.[Na+].[Na+] [Example 3, 5-Ethyl-4-[3-[2-propyl-3-[2-(2H-tetrazol-5-yl)phenoxy]phenoxy]propoxy][1,1′-biphenyl]-2-ol disodium salt sesquihydrate] |  | 55 | 
8 | CCCc1c(OCCCOc2cc([O-])c(-c3ccccc3)cc2CC)cccc1Oc1cccc(F)c1C(=O)[O-].[Na+].[Na+] [Example 4, 2-Fluoro-6-[2-propyl-3-[3-(2-ethyl-5-hydroxy-4-phenylphenoxy)propoxy]phenoxy]benzoic acid disodium salt] |  | 38 | 
9 | CCCc1c(OCCCOc2cc(O)c(-c3ccc(F)cc3)cc2CC)cccc1Oc1ccccc1C(=O)[O-].[Na+] [Example 5, 2-[2-Propyl-3-[3-[2-ethyl-4-(4-fluorophenyl)-5-hydroxyphenoxy]propoxy]phenoxy]benzoic acid sodium salt] |  | 23 | 
10 | CCCc1c(OCCCOc2cc(O)c(-c3ccc(F)cc3)cc2CC)cccc1Oc1cccc(F)c1C(=O)[O-].[Na+] [Example 6, 2-Fluoro-6-[2-propyl-3-[3-[2-ethyl-5-hydroxy-4-(4-fluorophenyl)phenoxy]propoxy]phenoxy]benzoic acid disodium salt hydrate] |  | 35 | 
11 | CCCc1c(OCCCOc2cc(O)c(-c3ccc(F)cc3)cc2CC)cccc1Oc1cc(F)ccc1C(=O)O [Example 7, 4-Fluoro-2-[2-propyl-3-[3-[2-ethyl-5-hydroxy-4-(4-fluorophenyl)phenoxy]propoxy]phenoxy]benzoic acid] | 62 to 64 °C | 72 | 
12 | CCCc1c(OCCCCCOc2cc(O)c(-c3ccc(F)cc3)cc2CC)cccc1Oc1ccccc1C(=O)O [Example 8, 2-[2-Propyl-3-[5-[2-ethyl-5-hydroxy-4-(4-fluorophenyl)phenoxy]pentoxy]phenoxy]benzoic acid] | 65 °C (dec.) | 57 | 
13 | CCCc1c(OCCCCOc2cc(O)c(-c3ccc(F)cc3)cc2CC)cccc1Oc1ccccc1C(=O)O [Example 9, 2-[2-Propyl-3-[4-[2-ethyl-5-hydroxy-4-(4-fluorophenyl)-phenoxy]butoxy]phenoxy]benzoic acid sesquihydrate] |  | 61 | 
14 | CCc1cc(-c2ccc(F)cc2)c(O)cc1OCCCOc1cccc(Oc2ccccc2C(=O)O)c1CC(C)C [Example 10, 2-[2-(2-Methylpropyl)-3-[3-[2-ethyl-5-hydroxy-4-(4-fluorophenyl)phenoxy]propoxy]phenoxy]benzoic acid] | 48 to 49 °C | 49 | 
15 | CCCCc1c(OCCCOc2cc(O)c(-c3ccc(F)cc3)cc2CC)cccc1Oc1ccccc1C(=O)O [Example 11, 2-[2-Butyl-3-[3-[2-ethyl-5-hydroxy-4-(4-fluorophenyl)phenoxy]propoxy]phenoxy]benzoic acid hydrate] |  | 47 | 
16 | CCc1cc(-c2ccc(F)cc2)c(O)cc1OCCCOc1cccc(Oc2ccccc2C(=O)O)c1Cc1ccccc1 [Example 12, 2-[2-(Phenylmethyl)-3-[3-[2-ethyl-5-hydroxy-4-(4-fluorophenyl)phenoxy]propoxy]phenoxy]benzoic acid] |  | 62 | 
17 | CCCc1c(OCCCOc2cc(O)c(-c3ccc(F)cc3)cc2CC)cccc1C(=O)c1ccccc1C(=O)O [Example 13, 2-[2-Propyl-3-[3-[2-ethyl-5-hydroxy-4-(4-fluorophenyl)phenoxy]propoxy]benzoyl]benzoic acid] |  | 64 | 
18 | CCCc1c(Cc2ccccc2C(=O)O)cccc1OCCCOc1cc(O)c(-c2ccc(F)cc2)cc1CC [Example 14, 2-[[2-Propyl-3-[3-[2-ethyl-5-hydroxy-4-(4-fluorophenyl)phenoxy]propoxy]phenyl]methyl]benzoic acid] | 150 to 151 °C | 58 | 
19 | CCCc1c(OCCCOc2cc(O)c(-c3ccc(F)cc3)cc2CC)cccc1Sc1ccccc1C(=O)O [Example 15, 2-[2-Propyl-3-[3-[2-ethyl-4-(4-fluorophenyl)-5-hydroxyphenoxy]propoxy]thiophenoxy]benzoic acid] | 153 to 155 °C | 73 | 
20 | CCCc1c(OCCCOc2cc(O)c(-c3ccc(F)cc3)cc2CC)cccc1[S+]([O-])c1ccccc1C(=O)O (centres unmarked) [Example 16, 2-[2-Propyl-3-[3-[2-ethyl-4-(4-fluorophenyl)-5-hydroxyphenoxy]propoxy]phenylsulfinyl]benzoic acid] | > 100 °C (dec.) | 35 | 
21 | CCCc1c(OCCCOc2cc(O)c(-c3ccc(F)cc3)cc2CC)cccc1S(=O)(=O)c1ccccc1C(=O)O [Example 17, 2-[2-Propyl-3-[3-[2-ethyl-4-(4-fluorophenyl)-5-hydroxyphenoxy]propoxy]phenylsulfonyl]benzoic acid hydrate] |  | 25 | 
22 | CCCc1c(OCCCOc2ccc(C(C)=O)c(OC)c2CCC)ccc2c1OC(C(=O)O)CC2 (centres unmarked) [Example 18, 8-Propyl-7-[3-[4-acetyl-3-methoxy-2-propylphenoxy]propoxy]-3,4-dihydro-2H-1-benzopyran-2-carboxylic acid] |  | 67 | 

— US6673813B2, “Methods for identifying and treating resistant tumors” (priority 1994, dated 2004)
